Source: publication PMC7265341, “Quantifying CDK inhibitor selectivity in live cells” (Nature Communications, 2020)
Read-outs that look alike come from different tables or passages of the source.

Key:
CDK1/Cyclin E1 = CDK1/Cyclin E1 (Homo sapiens, UniProt P06493); assay: NanoBRET live-cell target engagement, CDK1-NanoLuc/Cyclin E1 in HEK-293; format: binding; details: for inhibition at 10 µM: read-out: CDK1/E1 Inhibition at 10µM (%); for IC50: read-out: CDK1/E1 IC50
CDK2/Cyclin E1 = CDK2/Cyclin E1 (Homo sapiens, UniProt P24941); assay: NanoBRET live-cell target engagement, CDK2-NanoLuc/Cyclin E1 in HEK-293; format: binding; details: 10µM, read-out: CDK2/E1 Inhibition at 10µM (%)
CDK3/Cyclin E1 = CDK3/Cyclin E1 (Homo sapiens, UniProt Q00526); assay: NanoBRET live-cell target engagement, CDK3-NanoLuc/Cyclin E1 in HEK-293; format: binding; details: for inhibition at 10 µM: read-out: CDK3/E1 Inhibition at 10µM (%); for IC50: read-out: CDK3/E1 IC50
CDK4/Cyclin D1 = CDK4/Cyclin D1 (Homo sapiens, UniProt P11802); assay: NanoBRET live-cell target engagement, NanoLuc-CDK4/Cyclin D1 in HEK-293; format: binding; details: for inhibition at 10 µM: read-out: CDK4/D1 Inhibition at 10µM (%); for IC50: read-out: CDK4/D1 IC50
CDK5/CDK5R1 = CDK5/CDK5R1 (Homo sapiens, UniProt Q00535); assay: NanoBRET live-cell target engagement, CDK5-NanoLuc/CDK5R1 in HEK-293; format: binding; details: for inhibition at 10 µM: read-out: CDK5/CDK5R1 Inhibition at 10µM (%); for IC50: read-out: CDK5/CDK5R1 IC50
CDK6/Cyclin D1 = CDK6/Cyclin D1 (Homo sapiens, UniProt Q00534); assay: NanoBRET live-cell target engagement, NanoLuc-CDK6/Cyclin D1 in HEK-293; format: binding; details: for inhibition at 10 µM: read-out: CDK6/D1 Inhibition at 10µM (%); for IC50: read-out: CDK6/D1 IC50
CDK7 = CDK7 (Homo sapiens, UniProt P50613); assay: NanoBRET live-cell target engagement, NanoLuc-CDK7 in HEK-293; format: binding; details: for inhibition at 10 µM: read-out: CDK7 Inhibition at 10µM (%)
CDK8/Cyclin C = CDK8/Cyclin C (Homo sapiens, UniProt P49336); assay: NanoBRET live-cell target engagement, NanoLuc-CDK8/Cyclin C in HEK-293; format: binding; details: 10µM, read-out: CDK8/C Inhibition at 10µM (%)
CDK9/Cyclin K = CDK9/Cyclin K (Homo sapiens, UniProt P50750); assay: NanoBRET live-cell target engagement, NanoLuc-CDK9/Cyclin K in HEK-293; format: binding; details: 10µM, read-out: CDK9/K Inhibition at 10µM (%)
CDK11A/Cyclin L2 = molecular target: T1, CDK11A/Cyclin L2 (Homo sapiens, UniProt Q9UQ88); assay: NanoBRET live-cell target engagement, CDK11A-NanoLuc/Cyclin L2 in HEK-293; format: binding; details: 10µM, read-out: CDK11a/L2 Inhibition at 10µM (%)
T1 sequence (Q9UQ88 1-783): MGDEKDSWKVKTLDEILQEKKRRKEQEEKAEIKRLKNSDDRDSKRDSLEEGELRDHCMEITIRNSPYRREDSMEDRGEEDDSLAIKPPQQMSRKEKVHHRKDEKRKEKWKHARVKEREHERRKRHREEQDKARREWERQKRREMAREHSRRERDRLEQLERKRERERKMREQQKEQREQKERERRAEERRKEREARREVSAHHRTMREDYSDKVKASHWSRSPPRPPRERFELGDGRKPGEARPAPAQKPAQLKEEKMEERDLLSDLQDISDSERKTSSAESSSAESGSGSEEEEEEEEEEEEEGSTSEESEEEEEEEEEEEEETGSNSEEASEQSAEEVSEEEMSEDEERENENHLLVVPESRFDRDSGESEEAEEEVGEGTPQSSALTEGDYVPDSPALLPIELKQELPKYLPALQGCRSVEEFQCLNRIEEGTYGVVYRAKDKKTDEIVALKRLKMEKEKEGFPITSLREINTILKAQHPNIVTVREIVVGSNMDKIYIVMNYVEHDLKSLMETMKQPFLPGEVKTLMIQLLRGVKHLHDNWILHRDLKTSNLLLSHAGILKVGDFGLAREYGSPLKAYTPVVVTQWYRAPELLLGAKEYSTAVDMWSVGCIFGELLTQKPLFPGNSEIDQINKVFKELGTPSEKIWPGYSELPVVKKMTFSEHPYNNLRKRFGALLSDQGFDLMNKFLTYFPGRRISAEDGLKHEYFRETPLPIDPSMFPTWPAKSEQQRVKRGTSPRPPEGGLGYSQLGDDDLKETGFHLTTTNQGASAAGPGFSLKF

CDK11B/Cyclin L2 = CDK11B/Cyclin L2 (Homo sapiens, UniProt P21127); assay: NanoBRET live-cell target engagement, CDK11B-NanoLuc/Cyclin L2 in HEK-293; format: binding; details: 10µM, read-out: CDK11b/L2 Inhibition at 10µM (%)
CDK12/Cyclin K = CDK12/Cyclin K (Homo sapiens, UniProt Q9NYV4); assay: NanoBRET live-cell target engagement, CDK12-NanoLuc/Cyclin K in HEK-293; format: binding; details: 10µM, read-out: CDK12/K Inhibition at 10µM (%)
CDK13/Cyclin K = CDK13/Cyclin K (Homo sapiens, UniProt Q14004); assay: NanoBRET live-cell target engagement, CDK13-NanoLuc/Cyclin K in HEK-293; format: binding; details: 10µM, read-out: CDK13/K Inhibition at 10µM (%)
CDK15/Cyclin Y = CDK15/Cyclin Y (Homo sapiens, UniProt Q96Q40); assay: NanoBRET live-cell target engagement, NanoLuc-CDK15/Cyclin Y in HEK-293; format: binding; details: 10µM, read-out: CDK15/Y Inhibition at 10µM (%)
CDK16/Cyclin Y = CDK16/Cyclin Y (Homo sapiens, UniProt Q00536); assay: NanoBRET live-cell target engagement, CDK16-NanoLuc/Cyclin Y in HEK-293; format: binding; details: 10µM, read-out: CDK16/Y Inhibition at 10µM (%)
CDK17/Cyclin Y = CDK17/Cyclin Y (Homo sapiens, UniProt Q00537); assay: NanoBRET live-cell target engagement, CDK17-NanoLuc/Cyclin Y in HEK-293; format: binding; details: 10µM, read-out: CDK17/Y Inhibition at 10µM (%)
CDK18/Cyclin Y = CDK18/Cyclin Y (Homo sapiens, UniProt Q07002); assay: NanoBRET live-cell target engagement, CDK18-NanoLuc/Cyclin Y in HEK-293; format: binding; details: 10µM, read-out: CDK18/Y Inhibition at 10µM (%)
CDK20/Cyclin H = CDK20/Cyclin H (Homo sapiens, UniProt Q8IZL9); assay: NanoBRET live-cell target engagement, NanoLuc-CDK20/Cyclin H in HEK-293; format: binding; details: 10µM, read-out: CDK20/H Inhibition at 10µM (%)
CDK19/Cyclin C = CDK19/Cyclin C (Homo sapiens, UniProt Q9BWU1); assay: NanoBRET live-cell target engagement, NanoLuc-CDK19/Cyclin C in HEK-293; details: read-out: CDK19/C Inhibition at 10µM (%), 10µM
CDK19/Cyclin C, sequence (Q9BWU1 whole entry): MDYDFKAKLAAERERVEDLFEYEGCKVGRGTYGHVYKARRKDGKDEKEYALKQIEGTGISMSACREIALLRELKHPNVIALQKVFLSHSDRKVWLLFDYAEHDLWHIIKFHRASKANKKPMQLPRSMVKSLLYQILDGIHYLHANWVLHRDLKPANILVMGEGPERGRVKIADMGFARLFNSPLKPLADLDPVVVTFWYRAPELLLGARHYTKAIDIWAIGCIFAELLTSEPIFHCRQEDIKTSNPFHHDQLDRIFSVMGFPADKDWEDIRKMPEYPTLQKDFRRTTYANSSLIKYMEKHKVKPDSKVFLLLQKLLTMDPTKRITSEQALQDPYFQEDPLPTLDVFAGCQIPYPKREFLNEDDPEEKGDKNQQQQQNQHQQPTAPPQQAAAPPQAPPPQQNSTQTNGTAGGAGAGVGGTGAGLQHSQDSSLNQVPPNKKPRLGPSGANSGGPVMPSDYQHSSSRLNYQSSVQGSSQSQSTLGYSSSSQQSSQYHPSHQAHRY
CDK19/Cyclin C, sequence (P24863 whole entry partner): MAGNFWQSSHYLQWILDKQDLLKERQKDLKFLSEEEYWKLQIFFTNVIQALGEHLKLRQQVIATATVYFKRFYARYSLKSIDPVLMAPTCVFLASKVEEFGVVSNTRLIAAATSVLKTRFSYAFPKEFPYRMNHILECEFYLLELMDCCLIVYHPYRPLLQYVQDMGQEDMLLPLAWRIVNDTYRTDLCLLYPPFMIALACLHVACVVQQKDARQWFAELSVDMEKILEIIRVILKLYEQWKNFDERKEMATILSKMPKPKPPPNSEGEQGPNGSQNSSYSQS

CDK15/Cyclin Y, sequence (Q96Q40 whole entry): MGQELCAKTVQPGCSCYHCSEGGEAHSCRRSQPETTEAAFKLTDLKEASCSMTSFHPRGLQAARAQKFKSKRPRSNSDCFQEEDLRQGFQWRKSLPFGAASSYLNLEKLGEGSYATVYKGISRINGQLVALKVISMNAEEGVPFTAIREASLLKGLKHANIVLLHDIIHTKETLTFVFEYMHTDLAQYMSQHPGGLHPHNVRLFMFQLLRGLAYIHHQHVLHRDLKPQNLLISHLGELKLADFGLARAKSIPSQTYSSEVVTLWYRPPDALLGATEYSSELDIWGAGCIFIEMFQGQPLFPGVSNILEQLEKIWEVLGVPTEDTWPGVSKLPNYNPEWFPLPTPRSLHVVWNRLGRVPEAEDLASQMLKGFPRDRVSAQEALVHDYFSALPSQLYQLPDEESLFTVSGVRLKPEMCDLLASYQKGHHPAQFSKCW
CDK15/Cyclin Y, sequence (Q8ND76 whole entry partner): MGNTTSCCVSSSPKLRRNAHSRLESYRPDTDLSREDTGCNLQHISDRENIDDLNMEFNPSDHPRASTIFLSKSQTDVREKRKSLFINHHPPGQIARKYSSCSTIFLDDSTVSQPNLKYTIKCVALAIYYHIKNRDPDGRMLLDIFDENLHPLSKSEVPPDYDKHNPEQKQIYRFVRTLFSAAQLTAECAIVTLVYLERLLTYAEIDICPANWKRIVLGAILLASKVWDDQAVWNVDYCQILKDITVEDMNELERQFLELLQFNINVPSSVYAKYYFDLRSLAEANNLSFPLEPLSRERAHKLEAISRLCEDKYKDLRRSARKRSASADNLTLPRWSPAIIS
CDK17/Cyclin Y, sequence (Q00537 whole entry): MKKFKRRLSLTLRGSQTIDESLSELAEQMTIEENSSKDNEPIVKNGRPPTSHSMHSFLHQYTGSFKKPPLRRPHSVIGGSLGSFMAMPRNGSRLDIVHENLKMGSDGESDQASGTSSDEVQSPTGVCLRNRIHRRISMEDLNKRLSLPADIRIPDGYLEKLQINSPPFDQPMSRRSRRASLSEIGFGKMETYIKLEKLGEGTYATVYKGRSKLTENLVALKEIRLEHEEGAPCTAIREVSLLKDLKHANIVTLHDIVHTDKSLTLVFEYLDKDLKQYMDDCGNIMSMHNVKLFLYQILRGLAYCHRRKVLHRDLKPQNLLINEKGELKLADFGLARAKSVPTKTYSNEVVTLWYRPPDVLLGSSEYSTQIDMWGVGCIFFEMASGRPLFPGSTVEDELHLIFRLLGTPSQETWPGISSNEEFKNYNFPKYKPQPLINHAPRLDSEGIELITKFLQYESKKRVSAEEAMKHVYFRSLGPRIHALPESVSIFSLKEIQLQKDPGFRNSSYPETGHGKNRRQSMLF
CDK17/Cyclin Y, sequence (Q8ND76 whole entry partner): as the sequence (Q8ND76 whole entry partner) above
CDK3/Cyclin E1, sequence (Q00526 whole entry): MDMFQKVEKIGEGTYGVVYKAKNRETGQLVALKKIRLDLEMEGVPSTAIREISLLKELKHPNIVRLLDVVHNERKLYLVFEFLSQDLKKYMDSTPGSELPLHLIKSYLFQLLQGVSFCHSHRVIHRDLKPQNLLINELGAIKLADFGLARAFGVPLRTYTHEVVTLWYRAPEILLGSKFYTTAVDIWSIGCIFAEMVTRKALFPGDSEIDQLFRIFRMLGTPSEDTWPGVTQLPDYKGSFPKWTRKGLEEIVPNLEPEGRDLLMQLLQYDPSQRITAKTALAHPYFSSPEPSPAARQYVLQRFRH
CDK3/Cyclin E1, sequence (P24864 whole entry partner): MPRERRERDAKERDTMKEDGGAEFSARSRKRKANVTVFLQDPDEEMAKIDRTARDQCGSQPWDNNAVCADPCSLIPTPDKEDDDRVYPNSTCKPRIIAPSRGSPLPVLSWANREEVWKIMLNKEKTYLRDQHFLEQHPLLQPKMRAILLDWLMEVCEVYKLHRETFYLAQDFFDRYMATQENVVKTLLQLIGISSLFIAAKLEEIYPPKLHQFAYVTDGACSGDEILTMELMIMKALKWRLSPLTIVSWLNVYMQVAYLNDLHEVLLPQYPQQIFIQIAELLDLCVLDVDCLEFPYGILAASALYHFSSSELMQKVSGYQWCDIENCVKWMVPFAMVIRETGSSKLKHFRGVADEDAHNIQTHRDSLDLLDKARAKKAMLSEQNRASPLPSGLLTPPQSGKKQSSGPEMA
CDK18/Cyclin Y, sequence (Q07002 whole entry): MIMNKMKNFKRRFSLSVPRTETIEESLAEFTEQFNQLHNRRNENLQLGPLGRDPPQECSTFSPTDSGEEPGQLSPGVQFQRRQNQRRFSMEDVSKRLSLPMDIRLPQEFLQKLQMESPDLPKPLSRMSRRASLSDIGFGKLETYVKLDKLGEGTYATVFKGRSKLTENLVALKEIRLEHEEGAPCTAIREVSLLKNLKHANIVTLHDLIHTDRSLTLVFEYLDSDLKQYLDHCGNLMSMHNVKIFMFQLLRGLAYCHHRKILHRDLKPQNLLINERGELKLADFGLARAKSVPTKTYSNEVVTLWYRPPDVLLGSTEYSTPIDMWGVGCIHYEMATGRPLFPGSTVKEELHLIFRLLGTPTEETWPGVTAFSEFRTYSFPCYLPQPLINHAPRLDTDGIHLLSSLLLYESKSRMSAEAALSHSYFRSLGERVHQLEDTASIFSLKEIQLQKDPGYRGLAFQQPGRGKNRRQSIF
CDK18/Cyclin Y, sequence (Q8ND76 whole entry partner): as the sequence (Q8ND76 whole entry partner) above
CDK7, sequence (P50613 whole entry): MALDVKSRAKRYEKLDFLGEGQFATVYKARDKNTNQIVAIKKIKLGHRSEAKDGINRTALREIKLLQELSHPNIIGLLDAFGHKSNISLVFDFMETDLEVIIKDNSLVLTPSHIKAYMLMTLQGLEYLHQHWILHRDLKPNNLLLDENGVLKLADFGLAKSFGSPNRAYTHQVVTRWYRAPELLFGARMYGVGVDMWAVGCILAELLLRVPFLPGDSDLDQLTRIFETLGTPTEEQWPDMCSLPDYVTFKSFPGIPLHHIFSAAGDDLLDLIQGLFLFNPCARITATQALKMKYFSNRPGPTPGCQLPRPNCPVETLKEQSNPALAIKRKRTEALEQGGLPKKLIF
CDK8/Cyclin C, sequence (P49336 whole entry): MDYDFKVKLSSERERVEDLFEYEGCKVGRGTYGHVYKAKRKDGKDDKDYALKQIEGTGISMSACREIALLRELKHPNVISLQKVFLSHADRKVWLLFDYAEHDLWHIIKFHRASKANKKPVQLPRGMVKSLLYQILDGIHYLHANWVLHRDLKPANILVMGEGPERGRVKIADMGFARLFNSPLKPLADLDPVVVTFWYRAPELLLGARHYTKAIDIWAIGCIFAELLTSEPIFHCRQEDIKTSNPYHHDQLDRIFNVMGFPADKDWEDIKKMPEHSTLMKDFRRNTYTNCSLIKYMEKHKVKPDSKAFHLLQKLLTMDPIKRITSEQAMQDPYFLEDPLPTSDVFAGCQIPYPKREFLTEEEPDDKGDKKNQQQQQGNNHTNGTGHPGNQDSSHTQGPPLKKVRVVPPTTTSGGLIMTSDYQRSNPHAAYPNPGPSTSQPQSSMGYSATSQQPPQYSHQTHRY
CDK8/Cyclin C, sequence (P24863 whole entry partner): as the sequence (P24863 whole entry partner) above
CDK1/Cyclin E1, sequence (P06493 whole entry): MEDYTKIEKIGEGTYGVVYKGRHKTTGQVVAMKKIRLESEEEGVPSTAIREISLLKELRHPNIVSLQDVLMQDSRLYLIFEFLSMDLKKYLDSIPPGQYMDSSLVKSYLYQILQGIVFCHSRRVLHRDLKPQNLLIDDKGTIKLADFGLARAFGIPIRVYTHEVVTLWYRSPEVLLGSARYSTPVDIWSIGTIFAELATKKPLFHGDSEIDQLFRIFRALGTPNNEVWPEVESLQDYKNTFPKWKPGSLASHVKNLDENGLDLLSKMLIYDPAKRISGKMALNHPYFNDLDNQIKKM
CDK1/Cyclin E1, sequence (P24864 whole entry partner): as the sequence (P24864 whole entry partner) above

inhibition at 10 µM (CDK1/Cyclin E1; average of experiments): 71.4%
inhibition at 10 µM (CDK1/Cyclin E1; independent experiment 1): 72%
inhibition at 10 µM (CDK1/Cyclin E1; independent experiment 2): 70.8%
IC50 (CDK1/Cyclin E1; average (± SEM where n=3)): 820 nM
IC50 (CDK1/Cyclin E1; independent experiment 1): 800 nM
IC50 (CDK1/Cyclin E1; independent experiment 2): 850 nM
inhibition at 10 µM (CDK2/Cyclin E1; average of experiments): 96%
inhibition at 10 µM (CDK2/Cyclin E1; independent experiment 1): 95.7%
inhibition at 10 µM (CDK2/Cyclin E1; independent experiment 2): 96.3%
inhibition at 10 µM (CDK3/Cyclin E1; average of experiments): 93.2%
inhibition at 10 µM (CDK3/Cyclin E1; independent experiment 1): 93.4%
inhibition at 10 µM (CDK3/Cyclin E1; independent experiment 2): 93%
IC50 (CDK3/Cyclin E1; average (± SEM where n=3)): 280 nM
IC50 (CDK3/Cyclin E1; independent experiment 1): 165 nM
IC50 (CDK3/Cyclin E1; independent experiment 2): 394 nM
inhibition at 10 µM (CDK4/Cyclin D1; average of experiments): 83.1%
inhibition at 10 µM (CDK4/Cyclin D1; independent experiment 1): 82.5%
inhibition at 10 µM (CDK4/Cyclin D1; independent experiment 2): 83.8%
IC50 (CDK4/Cyclin D1; average (± SEM where n=3)): 320 nM
IC50 (CDK4/Cyclin D1; independent experiment 1): 122 nM
IC50 (CDK4/Cyclin D1; independent experiment 2): 510 nM
inhibition at 10 µM (CDK5/CDK5R1; average of experiments): 92%
inhibition at 10 µM (CDK5/CDK5R1; independent experiment 1): 89.9%
inhibition at 10 µM (CDK5/CDK5R1; independent experiment 2): 94.2%
IC50 (CDK5/CDK5R1; average (± SEM where n=3)): 360 nM
IC50 (CDK5/CDK5R1; independent experiment 1): 422 nM
IC50 (CDK5/CDK5R1; independent experiment 2): 300 nM
inhibition at 10 µM (CDK6/Cyclin D1; average of experiments): 88.3%
inhibition at 10 µM (CDK6/Cyclin D1; independent experiment 1): 84.9%
inhibition at 10 µM (CDK6/Cyclin D1; independent experiment 2): 91.6%
IC50 (CDK6/Cyclin D1; average (± SEM where n=3)): 430 nM
IC50 (CDK6/Cyclin D1; independent experiment 1): 374 nM
IC50 (CDK6/Cyclin D1; independent experiment 2): 480 nM
inhibition at 10 µM (CDK7; average of experiments): 94.1%
inhibition at 10 µM (CDK7; independent experiment 1): 95.3%
inhibition at 10 µM (CDK7; independent experiment 2): 92.8%
IC50 (CDK7; average (± SEM where n=3), read-out: CDK7 IC50): 240 nM
IC50 (CDK7; independent experiment 1, read-out: CDK7 IC50): 240 nM
IC50 (CDK7; independent experiment 2, read-out: CDK7 IC50): 230 nM
IC50 (CDK7; live HEK-293, 2 h, mean ± S.E.M. (n=3) or mean (n=2), read-out: IC50 for CDK/cyclin complexes, CDK7): 240 nM
inhibition at 10 µM (CDK8/Cyclin C; average of experiments): 57.2%
inhibition at 10 µM (CDK8/Cyclin C; independent experiment 1): 65.2%
inhibition at 10 µM (CDK8/Cyclin C; independent experiment 2): 49.1%
inhibition at 10 µM (CDK9/Cyclin K; average of experiments): 86%
inhibition at 10 µM (CDK9/Cyclin K; independent experiment 1): 87.8%
inhibition at 10 µM (CDK9/Cyclin K; independent experiment 2): 84.1%
inhibition at 10 µM (CDK11A/Cyclin L2; average of experiments): 50.1%
inhibition at 10 µM (CDK11A/Cyclin L2; independent experiment 1): 50.7%
inhibition at 10 µM (CDK11A/Cyclin L2; independent experiment 2): 49.4%
inhibition at 10 µM (CDK11B/Cyclin L2; average of experiments): 56.3%
inhibition at 10 µM (CDK11B/Cyclin L2; independent experiment 1): 57.8%
inhibition at 10 µM (CDK11B/Cyclin L2; independent experiment 2): 54.7%
inhibition at 10 µM (CDK12/Cyclin K; average of experiments): 31.4%
inhibition at 10 µM (CDK12/Cyclin K; independent experiment 1): 33%
inhibition at 10 µM (CDK12/Cyclin K; independent experiment 2): 29.9%
inhibition at 10 µM (CDK13/Cyclin K; average of experiments): 17.1%
inhibition at 10 µM (CDK13/Cyclin K; independent experiment 1): 23.7%
inhibition at 10 µM (CDK13/Cyclin K; independent experiment 2): 10.4%
inhibition at 10 µM (CDK15/Cyclin Y; average of experiments): 72.5%
inhibition at 10 µM (CDK15/Cyclin Y; independent experiment 1): 72.6%
inhibition at 10 µM (CDK15/Cyclin Y; independent experiment 2): 72.5%
inhibition at 10 µM (CDK16/Cyclin Y; independent experiment 1): 84.5%
inhibition at 10 µM (CDK16/Cyclin Y; independent experiment 2): 87%
inhibition at 10 µM (CDK17/Cyclin Y; average of experiments): 86.9%
inhibition at 10 µM (CDK17/Cyclin Y; independent experiment 1): 86.4%
inhibition at 10 µM (CDK17/Cyclin Y; independent experiment 2): 87.4%
inhibition at 10 µM (CDK18/Cyclin Y; average of experiments): 91.7%
inhibition at 10 µM (CDK18/Cyclin Y; independent experiment 1): 86.8%
inhibition at 10 µM (CDK18/Cyclin Y; independent experiment 2): 96.6%
inhibition at 10 µM (CDK20/Cyclin H; independent experiment 1): 5.8%
inhibition at 10 µM (CDK20/Cyclin H; independent experiment 2): 16.7%
inhibition at 10 µM (CDK19/Cyclin C; average of experiments): 52.6%
inhibition at 10 µM (CDK19/Cyclin C; independent experiment 1): 63.4%
inhibition at 10 µM (CDK19/Cyclin C; independent experiment 2): 41.9%
Compound: CC(C)CC(=O)Nc1[nH]nc2c1CN(C(=O)C1CCN(C)CC1)C2(C)C [PHA-793887]
